The record followed here is patent publication US12128028B2, “Heterocyclic sulfonamide derivatives and pharmaceutical uses thereof” (METRION BIOSCIENCES LIMITED, priority 2018, dated 2024).

Each structure is given as a SMILES string. pIC50: −log10 of the molar value.

This test deals with human Kv1.3 (Homo sapiens (Human), UniProt P22001). Briefly: Kv1.3 potency evaluation, automated patch clamp electrophysiology (QPatch HT) in CHO-Kv1.3 cells. Type of test: cell-based. Particulars: whole-cell QPatch HT, % inhibition of charge, step to +30 mV, four concentrations, N≥3 cells, read-out: hKv1.3 IC50. From the text:
Biological Assays Kv1.3 Potency Evaluation Electrophysiology Recordings
A proprietary Chinese hamster ovary cell line stably expressing exogenous human a-subunits of Kv1.3 (CHO-Kv1.3) channel, validated biophysically and pharmacologically in house, was used to assess the ability of test compounds to block Kv1.3 currents using automated patch clamp electrophysiology. The QPatch HT system (Sophion Bioscience A/S, Denmark) was used with the conventional whole-cell configuration. This system is an automated, chip-based planar patch clamp device allowing for up to 48 parallel independent experiments in one experimental assay run. Cells are added to each well and drawn by suction onto a small aperture to obtain a Gigaohm seal between the cell membrane and treated silicon surface, and whole-cell recordings initiated after access is achieved by suction and/or voltage pulses. The QPatch HT uses static perfusion, whereby a small volume of recording solution or drug is added to a reservoir on the chip and the solution perfuses across the cell through quartz-lined microfluidic channels; this solution is removed by capillary action when the next sample application is made.
CHO-Kv1.3 cells were prepared for experiments by dissociation from T175 cell culture flasks using trypsin-EDTA (0.05%), cells were kept in serum free media in the cell hotel on board the QPatch HT. These cells were sampled, washed and re-suspended in extracellular recording solution by the QPatch HT immediately before application to the recording well site on the chip. Experiments were performed using the following solutions; extracellular solution contained (in mM); 150 NaCl, 10 KCl, 1 MgCl2, 3 CaCl2), 10 Glucose and 10 HEPES (pH 7.4, NaOH) and intracellular solution contained (in mM); 20 KCl, 120 KF, 10 HEPES, 10 EGTA, 5 ATP (pH 7.2, KOH).
The potency (Inhibitory Concentration 50%, IC50) of synthesized compounds against Kv1.3 was determined from concentration-response relationships established by cumulatively applying four escalating concentrations of test compound to an individual cell and a minimum of N≥3 individual cells of data per compound were used to generate the IC50 value.
On achieving the whole-cell configuration; two additions of vehicle (0.1-0.3% DMSO v/v) were applied to each cell in two bolus additions with a two minute recording period between each addition (four minutes total recording time). Following the vehicle period, four concentrations of test sample were applied as two bolus additions per test concentration at two minute intervals, and the effects on current measured during the four minute recording period.
Currents were elicited using a single step voltage protocol. From a holding potential of −80 mV the cell is depolarised to +30 mV (500 ms) resulting in an outward current before finally repolarising the cell by returning to the holding potential. The command voltage was applied at a frequency of 0.067 Hz throughout the duration of the experiment. For each sweep of the voltage protocol membrane current and the passive properties of the individual cells were recorded by QPatch assay software (version 5.2). Cursors were placed to calculate the charge (integral of the current recorded during cursor interval) between 2-490 ms (0.4-99%) of the 500 ms step to +30 mV.
The % inhibition of charge for each test concentration application period was calculated as the reduction in mean charge at the end of each concentration test period relative to the charge value measured at the end of the control (i.e. vehicle) period. Sigmoidal concentration response curves (four parameter logistic curve) were fitted to the % inhibition rom which the IC50 was determined. Curve fits were constrained at 0 and 100%.
A general note: In patch-clamp work, channel activity is measured electrically.

Sequence of human Kv1.3 (P22001 whole entry): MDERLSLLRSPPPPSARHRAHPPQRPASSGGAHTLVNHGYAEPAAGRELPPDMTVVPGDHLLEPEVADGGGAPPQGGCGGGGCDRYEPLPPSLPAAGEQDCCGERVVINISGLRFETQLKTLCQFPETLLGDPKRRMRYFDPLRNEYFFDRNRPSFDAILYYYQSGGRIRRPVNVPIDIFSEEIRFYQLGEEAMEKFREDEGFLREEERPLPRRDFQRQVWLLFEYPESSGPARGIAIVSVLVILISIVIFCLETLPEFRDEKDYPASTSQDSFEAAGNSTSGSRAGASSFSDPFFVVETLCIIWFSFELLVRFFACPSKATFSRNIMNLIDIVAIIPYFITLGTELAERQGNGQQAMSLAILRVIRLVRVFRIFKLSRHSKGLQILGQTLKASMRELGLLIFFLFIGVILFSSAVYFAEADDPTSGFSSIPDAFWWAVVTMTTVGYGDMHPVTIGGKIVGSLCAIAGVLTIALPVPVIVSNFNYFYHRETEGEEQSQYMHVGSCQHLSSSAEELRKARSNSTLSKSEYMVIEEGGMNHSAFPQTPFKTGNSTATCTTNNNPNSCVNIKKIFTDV

What is called pIC50 is −log10 of the IC50, conventionally taken in molar units. Turning to `CC([C@@H]1CN=C(C23CC(N(Cc4ccc(C(F)(F)F)cc4)S(=O)(=O)c4ccc(F)cc4)(C2)C3)N1)N(C)C` (stereo partly shown) [Example 281], the pIC50 is 6.20.
`CC1(C)N=C(C23CC(N(Cc4ccc(C(F)(F)F)cc4)S(=O)(=O)c4ccc(F)cc4)(C2)C3)NC1C(=O)NCCC(F)(F)F` (stereo not shown) [Example 193]: the pIC50 is 6.94.
As to `CC1(NC(=O)C2NC(C34CC(N(Cc5ccc(C(F)(F)F)cc5)S(=O)(=O)c5ccc(F)cc5)(C3)C4)=NC2(C)C)CCC1` (stereo not shown) [Example 232], the pIC50 was 6.68.
The figure for `CN(C(=O)[C@@H]1NC(C23CC(N(Cc4ccc(Cl)c(Cl)c4)S(=O)(=O)c4ccccc4)(C2)C3)=NC1(C)C)C1CC(C(F)F)C1` (mixture of isomers) [Example 153] is 7.04; for `CC1(C)N=C(C23CC(N(Cc4ccc(Cl)cc4)S(=O)(=O)c4ccccc4[N+](=O)[O-])(C2)C3)N[C@H]1C(=O)NCCC(F)(F)F` (mixture of isomers) [Example 191] it is 6.94.
As for `O=C(NCC1CCC1)C1NC(C23CC(N(Cc4ccc(C(F)(F)F)cc4)S(=O)(=O)c4ccc(F)cc4)(C2)C3)=NC12CCC2` (stereo not shown) [Example 229], the pIC50 is 6.70.
For `CCCS(=O)(=O)N(Cc1ccc(Cl)c(Cl)c1)C12CC(C3=NC(C)(C)[C@H](C(=O)N4CCC(C(F)(F)F)CC4)N3)(C1)C2` (mixture of isomers) [Example 130], the pIC50 is 7.11.
The value for `CC1(C)N=C(C23CC(N(Cc4ccc(Cl)cc4)S(=O)(=O)c4ccccc4)(C2)C3)N[C@H]1C(=O)NC1CC(C(F)F)C1` (mixture of isomers) [Example 101] was 7.17; that for `CC1(C)N=C(C23CC(N(Cc4ccc(Cl)cc4)S(=O)(=O)c4ccccc4)(C2)C3)N[C@H]1C(=O)NC12CC(C1)C2` (mixture of isomers) [Example 12] was 7.52.
Regarding `CC1(C)N=C(C23CC(N(Cc4ccc(Cl)c(F)c4)S(=O)(=O)c4ccccc4)(C2)C3)N[C@H]1C(=O)NC1CC(F)(F)C1` (mixture of isomers) [Example 114], the pIC50 was 7.14.
The value for `COCCS(=O)(=O)N(Cc1ccc(Cl)cc1)C12CC(C3=NC(C)(C)[C@H](C(=O)NCCC(F)(F)F)N3)(C1)C2` (mixture of isomers) [Example 261] was 6.41; that for `CCCCCS(=O)(=O)N(Cc1ccc(Cl)cc1)C12CC(C3=NC(C)(C)[C@H](C(=O)NCCC(F)(F)F)N3)(C1)C2` (mixture of isomers) [Example 80] was 7.21.
Regarding `O=C(NCCC(F)(F)F)[C@@H]1NC(C23CC(N(Cc4ccc(C(F)(F)F)cc4)S(=O)(=O)c4ccc(F)cc4)(C2)C3)=NC12CC2` [Example 224], the pIC50 was 6.75.
Turning to `CC1(C)N=C(C23CC(N(Cc4ccc(Cl)cc4)S(=O)(=O)C4CCCCC4)(C2)C3)N[C@H]1C(=O)NCCC(F)(F)F` (mixture of isomers) [Example 42], the pIC50 is 7.34.
Consider `CC1(C)N=C(C23CC(N(Cc4ccc(C(F)F)cc4)S(=O)(=O)c4ccccc4)(C2)C3)N[C@H]1C(=O)NCCC(F)(F)F` (mixture of isomers) [Example 122], for which the pIC50 was 7.12.
Turning to `CC1(C)N=C(C23CC(N(Cc4ccc(Cl)c(F)c4)S(=O)(=O)c4ccccc4)(C2)C3)N[C@H]1C(=O)NC12CC(C1)C2` [Example 1, (R)-N-(Bicyclo[1.1.1]pentan-1-yl)-2-(3-(N-(4-chloro-3-fluorobenzyl)phenylsulfonamido)bicyclo[1.1.1]pentan-1-yl)-4,4-dimethyl-4,5-dihydro-1H-imidazole-5-carboxamide], the pIC50 is 7.46.
`CC1(C)N=C(C23CC(N(Cc4ccc(Cl)c(F)c4)S(=O)(=O)c4ccccc4)(C2)C3)N[C@H]1C(=O)NC1CCC1` (mixture of isomers) [Example 60]: the pIC50 was 7.29.
The figure for `CC1(C)N=C(C23CC(N(Cc4ccc(Cl)c(F)c4)S(=O)(=O)c4ccccc4)(C2)C3)N[C@H]1C(=O)N1C2CCC1CC(F)(F)C2` (mixture of isomers) [Example 77] is 7.22; for `C[C@]1(C(=O)N2CC3CC3C2)CN=C(C23CC(N(Cc4ccc(C(F)(F)F)cc4)S(=O)(=O)c4ccc(F)cc4)(C2)C3)N1` (mixture of isomers) [Example 234] it is 6.68.
Take `CN(C)C(=O)[C@H]1CN=C(C23CC(N(Cc4ccc(C(F)(F)F)cc4)S(=O)(=O)c4ccc(F)cc4)(C2)C3)N1` [Example 277]: the pIC50 was 6.23.
For `CC1(C)N=C(C23CC(N(Cc4ccc(Cl)cc4)S(=O)(=O)c4ccn(C5CC5)n4)(C2)C3)N[C@H]1C(=O)NCCC(F)(F)F` (mixture of isomers) [Example 90], the pIC50 is 7.19.
The figure for `CC1N=C(C23CC(N(Cc4ccc(C(F)(F)F)cc4)S(=O)(=O)c4ccc(F)cc4)(C2)C3)N[C@@]1(C)C(=O)NCC1CCC1` (mixture of isomers) [Example 245] is 6.60; for `CC1(C)N=C(C23CC(N(Cc4ccc(Cl)c(F)c4)S(=O)(=O)c4ccccc4)(C2)C3)N[C@H]1C(=O)NCC1(C(F)(F)F)CCC1` (mixture of isomers) [Example 162] it is 7.01.
Regarding `CN(C(=O)[C@@H]1NC(C23CC(N(Cc4ccc(Cl)c(F)c4)S(=O)(=O)c4ccccc4)(C2)C3)=NC1(C)C)C12CC(C1)C2` (mixture of isomers) [Example 33], the pIC50 is 7.37.
As for `CC1(C)N=C(C23CC(N(Cc4ccc(Cl)c(Cl)c4)S(=O)(=O)CCC(F)F)(C2)C3)N[C@H]1C(=O)NCC(F)(F)C(F)(F)F` (mixture of isomers) [Example 210], the pIC50 is 6.84.
As for `CC1(C)N=C(C23CC(N(Cc4ccc(Cl)c(Cl)c4)S(=O)(=O)c4ccccc4)(C2)C3)N[C@H]1C(=O)N1CCC2(COC2)C1` (mixture of isomers) [Example 283], the pIC50 was 6.13.
With `CC1(C)N=C(C23CC(N(Cc4ccc(F)cc4)S(=O)(=O)c4ccccc4)(C2)C3)N[C@H]1C(=O)NCCC(F)(F)F` (mixture of isomers) [Example 23], the pIC50 is 7.40.
Consider `CC1(C)N=C(C23CC(N(Cc4ccc(Cl)c(F)c4)S(=O)(=O)c4ccccc4)(C2)C3)N[C@H]1C(=O)N1CCCC1` (mixture of isomers) [Example 185], for which the pIC50 was 6.96.
The value for `C[C@]1(C(=O)NCC(F)(F)F)CN=C(C23CC(N(Cc4ccc(C(F)(F)F)cc4)S(=O)(=O)c4ccc(F)cc4)(C2)C3)N1` (mixture of isomers) [Example 260] was 6.43; that for `CC1(C)N=C(C23CC(N(Cc4ccc(Cl)cc4)S(=O)(=O)c4cccs4)(C2)C3)N[C@H]1C(=O)NCCC(F)(F)F` (mixture of isomers) [Example 18] was 7.44.
For `CC1(C)N=C(C23CC(N(Cc4ccc(Cl)cc4)S(=O)(=O)c4ccccc4)(C2)C3)N[C@H]1C(=O)NCC1CC(F)(F)C1` (mixture of isomers) [Example 37], the pIC50 was 7.35.
With `CCCS(=O)(=O)N(Cc1ccc(Cl)c(Cl)c1)C12CC(C3=NC(C)(C)[C@H](C(=O)N4CCC(F)(F)CC4)N3)(C1)C2` (mixture of isomers) [Example 96], the pIC50 is 7.19.
Consider `CC(F)(F)CCS(=O)(=O)N(Cc1ccc(Cl)c(Cl)c1)C12CC(C3=NC(C)(C)[C@H](C(=O)N4CCC(F)(F)CC4)N3)(C1)C2` (mixture of isomers) [Example 176], for which the pIC50 is 6.98.
In the case of `CCCS(=O)(=O)N(Cc1ccc(Cl)c(Cl)c1)C12CC(C3=NC(C)(C)[C@H](C(=O)NC45CC(C4)C5)N3)(C1)C2` (mixture of isomers) [Example 32], the pIC50 is 7.37.
Consider `CCCS(=O)(=O)N(Cc1ccc(Cl)c(Cl)c1)C12CC(C3=NC(C)(C)[C@H](C(=O)NCC4(C(F)(F)F)CC4)N3)(C1)C2` (mixture of isomers) [Example 143], for which the negative logarithm of the IC50 (pIC50) was 7.07.
Take `CN(C(=O)[C@@H]1NC(C23CC(N(Cc4ccc(Cl)c(Cl)c4)S(=O)(=O)c4ccccc4)(C2)C3)=NC1(C)C)C1CC(C(F)F)C1` (mixture of isomers) [Example 120]: the pIC50 was 7.13.
As for `CC1(C)N=C(C23CC(N(Cc4ccc(C(F)(F)F)cc4)S(=O)(=O)c4ccccc4)(C2)C3)NC1C(=O)NCCC(F)(F)F` (stereo not shown) [Example 220], the pIC50 was 6.77.
